# Laboratory results from publication PMC5936909, “Identification of potent chromone embedded [1,2,3]-triazoles as novel anti-tubercular agents” (Royal Society Open Science, 2018).
# Where two headings read alike, the source gives them in different places.
# Assays:
# RAW 264.7 cells = experiment: in vitro cytotoxicity, MTT assay; conditions: at 50 µg ml^−1, RAW 264.7 cells
# [1] = system: Mycobacterium tuberculosis H37Rv (ATCC27294); experiment: in vitro anti-tubercular activity, MABA assay; format: cell-based
# [2] = M. tuberculosis H37Rv, MABA, lowest concentration with complete inhibition of growth
# [3] = Mycobacterium tuberculosis, M. tuberculosis H37Rv, MABA, lowest concentration with complete inhibition of growth, read-out: MIC
# [4] = Mycobacterium tuberculosis, supplement page S72, standard drugs, read-out: MIC
# [5] = Mycobacterium tuberculosis, supplement page S73 correlation table, read-out: MIC
Compound,cytotoxicity (percentage inhibition of cells) (RAW 264.7 cells) [%],"MIC [1, 2] [µg/mL]",melting point [°C],"MIC [1, 3] [µg/mL]","MIC [1, 4] [µM]","MIC [1, 5] [µg/mL]",times more active than the standard drug ethambutol ([1]; ratio of MIC values) [times]
"3-((4-(4-propylphenyl)-1H-1,2,3-triazol-1-yl)methyl)-4H-chromen-4-one [6d]",20.60,50,,,,,
"O=c1c(Cn2cc(-c3cccc4ccccc34)nn2)coc2ccccc12 [6k, 3-((4-(naphthalen-1-yl)-1H-1,2,3-triazol-1-yl)methyl)-4H-chromen-4-one]",26.12,,154 to 155,50,,,
"CO[C@H]1/C=C/O[C@@]2(C)Oc3c(C)c(O)c4c(O)c(c(/C=N/N5CCN(C)CC5)c(O)c4c3C2=O)NC(=O)/C(C)=C\C=C\[C@H](C)[C@H](O)[C@@H](C)[C@@H](O)[C@@H](C)[C@H](OC(C)=O)[C@@H]1C [Rifampicin, rifampicin, reference compound]",,,,0.24,0.24,,
"COc1ccc(-c2cn(Cc3coc4ccccc4c3=O)nn2)cc1 [6g, 3-((4-(4-methoxyphenyl)-1H-1,2,3-triazol-1-yl)methyl)-4H-chromen-4-one]",28.40,6.25,170 to 171,,,6.25,
"Cc1cccc(-c2cn(Cc3coc4ccccc4c3=O)nn2)c1 [6i, 3-((4-(m-tolyl)-1H-1,2,3-triazol-1-yl)methyl)-4H-chromen-4-one]",26.82,,124 to 125,25,,,
"CCc1ccc(-c2cn(Cc3coc4ccccc4c3=O)nn2)cc1 [6c, 3-((4-(4-ethylphenyl)-1H-1,2,3-triazol-1-yl)methyl)-4H-chromen-4-one]",16.12,,,25,,,
"O=c1c(Cn2cc(C3(O)c4ccccc4-c4ccccc43)nn2)coc2ccccc12 [6r, 3-((4-(9-hydroxy-9H-fluoren-9-yl)-1H-1,2,3-triazol-1-yl)methyl)-4H-chromen-4-one]",30.60,,239 to 240,50,,,
"CCCCCc1ccc(-c2cn(Cc3coc4ccccc4c3=O)nn2)cc1 [6e, 3-((4-(4-pentylphenyl)-1H-1,2,3-triazol-1-yl)methyl)-4H-chromen-4-one]",20.12,,147 to 148,25,,,
"Cc1ccc(-c2cn(Cc3coc4ccccc4c3=O)nn2)cc1 [6b, 3-((4-(p-tolyl)-1H-1,2,3-triazol-1-yl)methyl)-4H-chromen-4-one]",26.82,,170 to 172,25,,,
"O=c1c(Cn2cc(-c3ccccc3)nn2)coc2ccccc12 [6a, 3-((4-phenyl-1H-1,2,3-triazol-1-yl)methyl)-4H-chromen-4-one]",12.86,,154 to 155,25,,,
"CCCCCCc1cn(Cc2coc3ccccc3c2=O)nn1 [6n, 3-((4-hexyl-1H-1,2,3-triazol-1-yl)methyl)-4H-chromen-4-one]",23.74,,84 to 85,50,,,
"O=c1c(Cn2cc(CCCCCCCCCCCCCCCO)nn2)coc2ccccc12 [6s, 3-((4-(15-hydroxypentadecyl)-1H-1,2,3-triazol-1-yl)methyl)-4H-chromen-4-one]",24.68,1.56,123 to 124,,,1.56,4.8
"O=c1c(Cn2cc(CC3CCCCC3)nn2)coc2ccccc12 [6q, 3-((4-(cyclohexylmethyl)-1H-1,2,3-triazol-1-yl)methyl)-4H-chromen-4-one]",28.62,,133 to 134,25,,,
"O=c1c(Cn2cc(C3CCCC3)nn2)coc2ccccc12 [6o, 3-((4-cyclopentyl-1H-1,2,3-triazol-1-yl)methyl)-4H-chromen-4-one]",18.42,3.125,157 to 158,,,3.12,
"2-((1H-1,2,3-triazol-1-yl)methyl)-4H-chromen-4-one [6t]",30.12,50,,,,,
"CC(C)(C)c1ccc(-c2cn(Cc3coc4ccccc4c3=O)nn2)cc1 [6f, 3-((4-(4-(tert-butyl)phenyl)-1H-1,2,3-triazol-1-yl)methyl)-4H-chromen-4-one]",20.12,3.125,218 to 219,,,3.12,
"CCCCCOc1ccc(-c2cn(Cc3coc4ccccc4c3=O)nn2)cc1 [6h, 3-((4-(4-(pentyloxy)phenyl)-1H-1,2,3-triazol-1-yl)methyl)-4H-chromen-4-one]",18.68,3.125,154 to 155,,,3.12,
"CCCCc1cn(Cc2coc3ccccc3c2=O)nn1 [6m, 3-((4-butyl-1H-1,2,3-triazol-1-yl)methyl)-4H-chromen-4-one]",36.82,6.25,87 to 88,,,6.25,
"CC[C@@H](CO)NCCN[C@@H](CC)CO [ethambutol, reference compound]",,,,7.64,7.64,,
"O=c1c(Cn2cc(C3CCCCC3)nn2)coc2ccccc12 [6p, 3-((4-cyclohexyl-1H-1,2,3-triazol-1-yl)methyl)-4H-chromen-4-one]",20.12,12.5,145 to 146,,,12.5,
"O=c1c(Cn2cc(-c3ccccn3)nn2)coc2ccccc12 [6l, 3-((4-(pyridin-2-yl)-1H-1,2,3-triazol-1-yl)methyl)-4H-chromen-4-one]",30.60,,175 to 176,50,,,
"COc1ccc(-c2cn(Cc3coc4ccccc4c3=O)nn2)c(C)c1 [6j, 3-((4-(4-methoxy-2-methylphenyl)-1H-1,2,3-triazol-1-yl)methyl)-4H-chromen-4-one]",30.34,,172 to 173,50,,,
